From article PMC12040169 (PLOS Biology, 2025)

Experiment: in vitro
Settings: human, hela cells, % viability

Row | Compound | viability at 28.5 h, 10 µM [%]
1 | N#CCCN(C1CCCCC1)S(=O)(=O)c1ccc(-c2ccc([N+](=O)[O-])cc2)cc1 [CBK261382] | 90.6
2 | NC(=O)OC(c1ccccc1[N+](=O)[O-])P(=O)(c1ccccc1)c1ccccc1 (stereo not drawn) [CBK261383] | 88.3
3 | C(=N\c1ccc2c(c1)OCCOCCOc1cc(/N=C/c3ccccc3)ccc1OCCOCCO2)/c1ccccc1 [CBK261388] | 100
4 | CC(=O)Nc1ccc(-c2nc3ccc(-c4ccc5nc(-c6ccc(NC(C)=O)cc6)oc(=O)c5c4)cc3c(=O)o2)cc1 [CBK261391] | 107
5 | O=C(O)c1cc(NC(=O)c2cccc(N3C(=O)c4ccc([N+](=O)[O-])cc4C3=O)c2)cc(C(=O)O)c1 [CBK261394] | 90.5
6 | CC(C)(C)C(=O)Nc1ccc(-c2nc3ccc(Cc4ccc5nc(-c6ccc(NC(=O)C(C)(C)C)cc6)oc(=O)c5c4)cc3c(=O)o2)cc1 [CBK261396] | 104
7 | O=C1c2ccc(Oc3cccc(Oc4ccc5c(c4)C(=O)N(c4ccccn4)C5=O)c3)cc2C(=O)N1c1ccccn1 [CBK261397] | 89.8
8 | O=C1c2ccc(Oc3cccc(Oc4ccc5c(c4)C(=O)N(CCO)C5=O)c3)cc2C(=O)N1CCO [CBK261398] | 110
9 | CCCN1C(=S)N(CCO)C(=O)/C1=C/C=C1/Oc2ccccc2N1CCC(=O)O [CBK261400] | 88.6
10 | CNC(=O)Nc1ccccc1NC(=O)NC [CBK261401] | 93
11 | O=C(O)c1ccc(N2C(=O)CC(N3CCN(Cc4ccccc4)CC3)C2=O)cc1 (stereo not drawn) [CBK261403] | 94.7
12 | COc1ccc(CCCNC(=N)N)cc1Cl [CBK261404G] | 93.4
13 | CC(C)NCC(O)COCc1ccc(Cl)cc1 (stereo not drawn) [CBK261406C] | 108
14 | Cc1ccc(C(=O)N/C(=C\c2cccc([N+](=O)[O-])c2)C(=O)NC2CCCCC2)cc1 [CBK261407] | 89.2
15 | N=C1NC(=O)/C(=C\c2ccc(-c3ccc(Br)cc3)o2)S1 [CBK261409] | 69.9
16 | O=C(O)c1ccc(S(=O)(=O)c2ccc(O)cc2)cc1 [CBK261411] | 95.2
17 | Oc1ccc(/C=N/N(Cc2ccccc2)Cc2ccccc2)cc1 [CBK261414] | 98.2
18 | OC(Cn1nc(-c2ccccc2)cc1-c1ccccc1)Cn1c2ccc(Cl)cc2c2cc(Cl)ccc21 (stereo not drawn) [CBK261418] | 84.7
19 | Cc1cccc(NCC(O)Cn2c3ccc(Br)cc3c3cc(Br)ccc32)c1 (stereo not drawn) [CBK261419] | 94.5
20 | OC(CNc1cccc2ccccc12)Cn1c2ccc(Br)cc2c2cc(Br)ccc21 (stereo not drawn) [CBK261420] | 99.8

Row | Compound | viability at 28.5 h, 10 µM [%]
21 | Cc1nc([N+](=O)[O-])c(NCCO)n1Cc1ccccc1 [CBK261422] | 88.5
22 | Cn1c(-c2ccc(-c3nc4cnccc4n3C)cc2)nc2cnccc21 [CBK261423] | 106
23 | CC(NC(=O)COc1ccc(Cl)cc1Cl)C(=O)O (stereo not drawn) [CBK261425] | 91.2
24 | O=C(O)c1ccc(CN2CCOCC2)o1 [CBK261426C] | 90.7
25 | O=C(/C=C(O)/C(O)=C/C(=O)c1ccc(Cl)cc1)c1ccc(Cl)cc1 [CBK261428] | 102
26 | CN(C(=O)CCC(=O)O)c1ccccc1C(=O)O [CBK261429] | 104
27 | O=C(N/N=C/C=N/NC(=O)c1ccccc1O)c1ccccc1O [CBK261430] | 98.2
28 | Cc1cccnc1NC(=O)c1c(O)c2ccccc2n(C)c1=O [CBK261431] | 96
29 | CCn1c(=O)c(C(=O)NCCN2CCCCC2)c(O)c2ccccc21 [CBK261432C] | 97.7
30 | O=[N+]([O-])c1cccc(-c2nc(-c3ccccc3)c(-c3ccc4oc5ccc(-c6[nH]c(-c7cccc([N+](=O)[O-])c7)nc6-c6ccccc6)cc5c4c3)[nH]2)c1 [CBK261433] | 87.5
31 | N=c1n(-c2ccccc2)c(O)c(C(c2ccncc2)c2c(O)n(-c3ccccc3)c(=N)n(-c3ccccc3)c2=O)c(=O)n1-c1ccccc1 (stereo not drawn) [CBK261438] | 82
32 | CC(=O)NS(=O)(=O)c1ccc(Nc2ccc([N+](=O)[O-])c3nonc23)cc1 [CBK261443] | 89.7
33 | Cc1cc(C)nc(NS(=O)(=O)c2ccc(Nc3ccc4nonc4c3[N+](=O)[O-])cc2)n1 [CBK261444] | 103
34 | CCc1nnc(NS(=O)(=O)c2ccc(Nc3ccc4nonc4c3[N+](=O)[O-])cc2)s1 [CBK261445] | 98
35 | CC12CN3CC(C)(CN(C1)C3c1ccc(Br)cc1)C2=O (stereo not drawn) [CBK261452] | 92.1
36 | COc1cc(C2N3CC4(C)CN2CC(C)(C3)C4=O)ccc1O (stereo not drawn) [CBK261453] | 99.6
37 | CC1CCN(CCOCC(O)CNS(=O)(=O)O)CC1 (stereo not drawn) [CBK261454N] | 124
38 | NC(=O)C1CCN(S(=O)(=O)c2ccc([N+](=O)[O-])cc2)CC1 [CBK261455] | 87
39 | CN(CCO)S(=O)(=O)c1ccccc1[N+](=O)[O-] [CBK261457] | 102
40 | CN(Cc1ccccc1)S(=O)(=O)c1ccccc1[N+](=O)[O-] [CBK261458] | 92.3

Row | Compound | viability at 28.5 h, 10 µM [%]
41 | Cc1ncc(COP(=O)(O)O)c(/C=N/c2ccc3ccccc3c2)c1O [CBK261460] | 106
42 | O=C(O)/C=C/C(=O)Nc1ccccc1C(=O)O [CBK261461] | 101
43 | CN(C)CCCO/N=C(\c1ccccc1)c1ccncc1 [CBK261464G] | 95.3
44 | CN1C2CCC1CC(OC(=O)CCN1CCOCC1)C2 (stereo not drawn) [CBK261465] | 97.4
45 | CN(C)CCCNc1c(N)c(=O)oc2ccccc12 [CBK261468] | 94.3
46 | O=c1oc2ccccc2c(NCCCN2CCOCC2)c1[N+](=O)[O-] [CBK261471] | 120
47 | O=C(Nc1cccc2cccnc12)c1cccc2ccccc12 [CBK261473] | 72.7
48 | O=C(/C=C/c1ccco1)Nc1cc2ccccc2cc1NC(=O)/C=C/c1ccco1 [CBK261474] | 99.5
49 | CC(=O)C12CCCCC1CC1C3CC(C)C4(O)CC(O)CCC4(C)C3CCC12C (stereo not drawn) [CBK261479] | 91.8
50 | COc1cc(/C=N/NC(=O)C2COc3ccccc3O2)cc([N+](=O)[O-])c1O (stereo not drawn) [CBK261480] | 89.1
51 | CC(C)Cc1ccc(C(C)c2nc3ccccc3[nH]2)cc1 (stereo not drawn) [CBK261484] | 89.7
52 | Nc1ccc(Oc2ccc(-n3c(=O)c4cc5c(=O)n(-c6ccc(Oc7ccc(N)cc7)cc6)c(=O)c5cc4c3=O)cc2)cc1 [CBK261489] | 104
53 | CC(=O)N/C(=C\c1ccccc1)C(=O)NC(C)C(=O)O (stereo not drawn) [CBK261491] | 99.1
54 | Nc1ccc(S(=O)(=O)O)c2cccc(S(=O)(=O)O)c12 [CBK261492N] | 99.6
55 | Nc1nc(N)nc(-c2ccc(-c3nc(N)nc(N)n3)cc2)n1 [CBK261494] | 90.4
56 | O=C(O)c1cccc(N2C(=O)C3C4C=CC(C3C2=O)C2C(=O)N(c3cccc(C(=O)O)c3)C(=O)C42)c1 (stereo not drawn) [CBK261495] | 110
57 | CN1CCN(CCC(=O)N/N=C/c2ccc3c(c2)OCO3)CC1 [CBK261498] | 91.5
58 | COc1cccc(/C=N/NC(=O)CCN2CCN(C)CC2)c1O [CBK261499] | 91.3

Same assay, conditions: human, hela cells, % viability, bulk resorufin, single well

Row | Compound | viability at 28.5 h, 10 µM [%]
59 | COc1ccc(N2C(=O)NC(=O)/C(=C\c3ccc(O)c(O)c3)C2=O)cc1 [CBK261436] | 92
60 | C=CCN1C(=O)/C(=N\Nc2ccc(S(=O)(=O)O)cc2)C(=O)NC1=S [CBK261440] | 92
